Structures are written as SMILES.

Here are results for three compounds from ChEMBL document CHEMBL1132717, “Development of fluorine-18-labeled 5-HT1A antagonists” (J Med Chem, 1999).

For data set [1], the species on record is Rattus norvegicus. In words: Biodistribution of the [18F]-radiolabeled compound in rat hypothalamus. Format: ADME, organism-based. The settings on record: in vivo.
For data set [2], the species on record is Rattus norvegicus. Kind of data set: Biodistribution of the [18F]-radiolabeled compound in rat cerebellum. Format: ADME, organism-based. The settings on record: in vivo.
For data set [3], the species on record is Rattus norvegicus. Kind of data set: Biodistribution of the [18F]-radiolabeled compound in rat hippocampus. Format: ADME, organism-based. As to conditions: in vivo.
For data set [4], the species on record is Rattus norvegicus. In words: Biodistribution of the [18F]-radiolabeled compound in rat cortex. Format: ADME, organism-based. As to conditions: in vivo.
Data set [5] has as its target T1, 5-hydroxytryptamine receptor 1A (Homo sapiens, UniProt P08908).
T1 sequence (P08908 whole entry): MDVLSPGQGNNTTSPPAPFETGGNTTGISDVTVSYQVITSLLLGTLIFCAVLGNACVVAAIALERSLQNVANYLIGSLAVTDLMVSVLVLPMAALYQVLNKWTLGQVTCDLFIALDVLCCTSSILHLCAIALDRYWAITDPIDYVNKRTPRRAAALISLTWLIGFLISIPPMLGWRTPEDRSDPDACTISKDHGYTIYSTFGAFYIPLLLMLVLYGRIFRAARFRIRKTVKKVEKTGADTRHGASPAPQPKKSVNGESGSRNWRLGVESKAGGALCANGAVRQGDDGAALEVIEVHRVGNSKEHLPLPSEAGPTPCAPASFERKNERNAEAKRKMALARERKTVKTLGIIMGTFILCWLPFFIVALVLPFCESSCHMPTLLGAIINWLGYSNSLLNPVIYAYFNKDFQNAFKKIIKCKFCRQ
In words: In vitro inhibition of [3H]- 8-OH-DPAT binding to cloned cell line containing human 5-hydroxytryptamine 1A receptor.

Data set [6] has as its target T1, 5-hydroxytryptamine receptor 1A. Kind of data set: In vitro inhibition of [3H]- 8-OH-DPAT binding to cloned cell line containing human 5-hydroxytryptamine 1A receptor by Panlabs assay.
Data set [7] shares this target. In words: In vitro inhibition of [3H]- 8-OH-DPAT binding to cloned cell line containing human 5-hydroxytryptamine 1A receptor (Experiment 2).
Data set [8] shares this target. Kind of data set: In vitro inhibition of [3H]- 8-OH-DPAT binding to cloned cell line containing human 5-hydroxytryptamine 1A receptor (Experiment 1).

Take `COc1ccccc1N1CCN(CCN(C(=O)c2ccc(F)cc2)c2ccccn2)CC1`: the ID/g in the data set listed under Rattus norvegicus [1] was 0.066%; in the data set filed under Rattus norvegicus [2], 0.034%; in the data set filed under Rattus norvegicus [3], 0.195%; in the data set filed under Rattus norvegicus [4] it was 0.085%.
Broadly, the Ki is a dissociation constant, usually derived from enzyme kinetics or from competition with a known ligand. Lower therefore signals tighter binding. On to `COc1ccccc1N1CCN(CCN(C(=O)C2CCC(F)CC2)c2ccccn2)CC1` (stereo unspecified), for which the results for the Ki in data set [5] and in data set [6] were 0.515 nM and 0.247 nM, respectively. Besides, the ID/g is listed as 0.499% in the data set filed under Rattus norvegicus [1], 0.064% in the data set filed under Rattus norvegicus [2], 1.298% in the data set listed under Rattus norvegicus [3] and 0.823% in the data set filed under Rattus norvegicus [4].
Take `COc1ccccc1N1CCN(CCN(C(=O)c2ccc(F)c(C)c2)c2ccccn2)CC1`: the Ki was found to be 0.791 nM in data set [6], 1.14 nM in data set [7] and 3.96 nM in data set [8]. The ID/g in the data set filed under Rattus norvegicus [2] amounted to 0.02%; in the data set listed under Rattus norvegicus [3], 0.118%; in the data set listed under Rattus norvegicus [4], 0.047%.
